Test results from paper PMC8217170, “Phase Ib dose-escalation study of the hypoxia-modifier Myo-inositol trispyrophosphate in patients with hepatopancreatobiliary tumors” (Nature Communications, 2021).

Assay: Plasma levels and pharmacokinetics of intravenous ITPP

O=P1(O)OC2C3OP(=O)(O)OP(=O)(O)OC3C3OP(=O)(O)OP(=O)(O)OC3C2OP(=O)(O)O1 (centres unmarked) [ITPP, Myo-inositol trispyrophosphate]
ITPP plasma level, Concentration (Cohort 6, Patient 18, Day 5, Hour 10): 60.6 µg/mL
ITPP plasma level, Concentration (Cohort 6, Patient 19, Day 1, Hour 0): 0 µg/mL
ITPP plasma level, Concentration (Cohort 6, Patient 19, Day 1, Hour 3): 392 µg/mL
ITPP plasma level, Concentration (Cohort 6, Patient 19, Day 1, Hour 6): 294 µg/mL
ITPP plasma level, Concentration (Cohort 6, Patient 19, Day 1, Hour 8.5): 219 µg/mL
ITPP plasma level, Concentration (Cohort 6, Patient 19, Day 1, Hour 9): 185 µg/mL
ITPP plasma level, Concentration (Cohort 6, Patient 19, Day 1, Hour 10): 154 µg/mL
ITPP plasma level, Concentration (Cohort 6, Patient 19, Day 5, Hour 0): 0 µg/mL
ITPP plasma level, Concentration (Cohort 6, Patient 19, Day 5, Hour 3): 287 µg/mL
ITPP plasma level, Concentration (Cohort 6, Patient 19, Day 5, Hour 6): 329 µg/mL
ITPP plasma level, Concentration (Cohort 6, Patient 19, Day 5, Hour 8.5): 265 µg/mL
ITPP plasma level, Concentration (Cohort 6, Patient 19, Day 5, Hour 9): 244 µg/mL
ITPP plasma level, Concentration (Cohort 6, Patient 19, Day 5, Hour 10): 216 µg/mL
ITPP plasma level, Concentration (Cohort 6, Patient 20, Day 1, Hour 0): 0 µg/mL
ITPP plasma level, Concentration (Cohort 6, Patient 20, Day 1, Hour 3): 279 µg/mL
ITPP plasma level, Concentration (Cohort 6, Patient 20, Day 1, Hour 6): 307 µg/mL
ITPP plasma level, Concentration (Cohort 6, Patient 20, Day 1, Hour 8.5): 282 µg/mL
ITPP plasma level, Concentration (Cohort 6, Patient 20, Day 1, Hour 9): 396 µg/mL
ITPP plasma level, Concentration (Cohort 6, Patient 20, Day 1, Hour 10): 396 µg/mL
ITPP plasma level, Concentration (Cohort 6, Patient 20, Day 5, Hour 0): 0 µg/mL
ITPP plasma level, Concentration (Cohort 6, Patient 20, Day 5, Hour 3): 411 µg/mL
ITPP plasma level, Concentration (Cohort 6, Patient 20, Day 5, Hour 6): 595 µg/mL
ITPP plasma level, Concentration (Cohort 6, Patient 20, Day 5, Hour 8.5): 466 µg/mL
ITPP plasma level, Concentration (Cohort 6, Patient 20, Day 5, Hour 9): 301 µg/mL
ITPP plasma level, Concentration (Cohort 6, Patient 20, Day 5, Hour 10): 279 µg/mL
ITPP plasma level, Concentration (Cohort 6, Patient 21, Day 1, Hour 0): 0 µg/mL
ITPP plasma level, Concentration (Cohort 6, Patient 21, Day 1, Hour 3): 249 µg/mL
ITPP plasma level, Concentration (Cohort 6, Patient 21, Day 1, Hour 6): 325 µg/mL
ITPP plasma level, Concentration (Cohort 6, Patient 21, Day 1, Hour 8.5): 281 µg/mL
ITPP plasma level, Concentration (Cohort 6, Patient 21, Day 1, Hour 9): 241 µg/mL
ITPP plasma level, Concentration (Cohort 6, Patient 21, Day 1, Hour 10): 172 µg/mL
ITPP plasma level, Concentration (Cohort 6, Patient 21, Day 5, Hour 0): 0 µg/mL
ITPP plasma level, Concentration (Cohort 6, Patient 21, Day 5, Hour 3): 350 µg/mL
ITPP plasma level, Concentration (Cohort 6, Patient 21, Day 5, Hour 6): 204 µg/mL
ITPP plasma level, Concentration (Cohort 6, Patient 21, Day 5, Hour 8.5): 217 µg/mL
ITPP plasma level, Concentration (Cohort 6, Patient 21, Day 5, Hour 9): 184 µg/mL
ITPP plasma level, Concentration (Cohort 6, Patient 21, Day 5, Hour 10): 125 µg/mL
ITPP plasma level, Concentration (Cohort 7, Patient 22, Day 1, Hour 0): 0 µg/mL
ITPP plasma level, Concentration (Cohort 7, Patient 22, Day 1, Hour 3): 280 µg/mL
ITPP plasma level, Concentration (Cohort 7, Patient 22, Day 1, Hour 6): 384 µg/mL
ITPP plasma level, Concentration (Cohort 7, Patient 22, Day 1, Hour 8.5): 281 µg/mL
ITPP plasma level, Concentration (Cohort 7, Patient 22, Day 1, Hour 9): 215 µg/mL
ITPP plasma level, Concentration (Cohort 7, Patient 22, Day 1, Hour 10): 152 µg/mL
ITPP plasma level, Concentration (Cohort 7, Patient 22, Day 5, Hour 0): 0 µg/mL
ITPP plasma level, Concentration (Cohort 7, Patient 22, Day 5, Hour 3): 257 µg/mL
ITPP plasma level, Concentration (Cohort 7, Patient 22, Day 5, Hour 6): 351 µg/mL
ITPP plasma level, Concentration (Cohort 7, Patient 22, Day 5, Hour 8.5): 319 µg/mL
ITPP plasma level, Concentration (Cohort 7, Patient 22, Day 5, Hour 9): 302 µg/mL
ITPP plasma level, Concentration (Cohort 7, Patient 22, Day 5, Hour 10): 203 µg/mL
ITPP plasma level, Concentration (Cohort 7, Patient 23, Day 1, Hour 0): 0 µg/mL
ITPP plasma level, Concentration (Cohort 7, Patient 23, Day 1, Hour 3): 286 µg/mL
ITPP plasma level, Concentration (Cohort 7, Patient 23, Day 1, Hour 6): 329 µg/mL
ITPP plasma level, Concentration (Cohort 7, Patient 23, Day 1, Hour 8.5): 316 µg/mL
ITPP plasma level, Concentration (Cohort 7, Patient 23, Day 1, Hour 9): 178 µg/mL
ITPP plasma level, Concentration (Cohort 7, Patient 23, Day 1, Hour 10): 119 µg/mL
ITPP plasma level, Concentration (Cohort 7, Patient 23, Day 5, Hour 0): 0 µg/mL
ITPP plasma level, Concentration (Cohort 7, Patient 23, Day 5, Hour 3): 282 µg/mL
ITPP plasma level, Concentration (Cohort 7, Patient 23, Day 5, Hour 6): 478 µg/mL
ITPP plasma level, Concentration (Cohort 7, Patient 23, Day 5, Hour 8.5): 418 µg/mL
ITPP plasma level, Concentration (Cohort 7, Patient 23, Day 5, Hour 9): 188 µg/mL
ITPP plasma level, Concentration (Cohort 7, Patient 23, Day 5, Hour 10): 185 µg/mL
ITPP plasma level, Concentration (Cohort 7, Patient 24, Day 1, Hour 0): 0 µg/mL
ITPP plasma level, Concentration (Cohort 7, Patient 24, Day 1, Hour 3): 278 µg/mL
ITPP plasma level, Concentration (Cohort 7, Patient 24, Day 1, Hour 6): 230 µg/mL
ITPP plasma level, Concentration (Cohort 7, Patient 24, Day 1, Hour 8.5): 226 µg/mL
ITPP plasma level, Concentration (Cohort 7, Patient 24, Day 1, Hour 9): 152 µg/mL
ITPP plasma level, Concentration (Cohort 7, Patient 24, Day 1, Hour 10): 103 µg/mL
ITPP plasma level, Concentration (Cohort 7, Patient 24, Day 2, Hour 0): 0 µg/mL
ITPP plasma level, Concentration (Cohort 7, Patient 24, Day 2, Hour 9): 143 µg/mL
ITPP plasma level, Concentration (Cohort 7, Patient 24, Day 3, Hour 0): 0 µg/mL
ITPP plasma level, Concentration (Cohort 7, Patient 24, Day 3, Hour 9): 237 µg/mL
ITPP plasma level, Concentration (Cohort 7, Patient 24, Day 4, Hour 0): 0 µg/mL
ITPP plasma level, Concentration (Cohort 7, Patient 24, Day 4, Hour 9): 199 µg/mL
ITPP plasma level, Concentration (Cohort 7, Patient 24, Day 5, Hour 0): 0 µg/mL
ITPP plasma level, Concentration (Cohort 7, Patient 24, Day 5, Hour 3): 299 µg/mL
ITPP plasma level, Concentration (Cohort 7, Patient 24, Day 5, Hour 6): 358 µg/mL
ITPP plasma level, Concentration (Cohort 7, Patient 24, Day 5, Hour 8.5): 245 µg/mL
ITPP plasma level, Concentration (Cohort 7, Patient 24, Day 5, Hour 9): 200 µg/mL
ITPP plasma level, Concentration (Cohort 7, Patient 24, Day 5, Hour 10): 141 µg/mL
ITPP plasma level, Concentration (Cohort 7, Patient 24, Day 6, Hour 0): 0 µg/mL
ITPP plasma level, Concentration (Cohort 7, Patient 24, Day 6, Hour 9): 200 µg/mL
ITPP plasma level, Concentration (Cohort 7, Patient 24, Day 7, Hour 0): 0 µg/mL
ITPP plasma level, Concentration (Cohort 7, Patient 24, Day 7, Hour 9): 208 µg/mL
ITPP plasma level, Concentration (Cohort 7, Patient 24, Day 8, Hour 0): 0 µg/mL
ITPP plasma level, Concentration (Cohort 7, Patient 24, Day 8, Hour 9): 181 µg/mL
ITPP plasma level, Concentration (Cohort 7, Patient 24, Day 9, Hour 0): 0 µg/mL
ITPP plasma level, Concentration (Cohort 7, Patient 24, Day 9, Hour 3): 247 µg/mL
ITPP plasma level, Concentration (Cohort 7, Patient 24, Day 9, Hour 6): 345 µg/mL
ITPP plasma level, Concentration (Cohort 7, Patient 24, Day 9, Hour 8.5): 217 µg/mL
ITPP plasma level, Concentration (Cohort 7, Patient 24, Day 9, Hour 9): 199 µg/mL
ITPP plasma level, Concentration (Cohort 7, Patient 24, Day 9, Hour 10): 143 µg/mL
ITPP plasma level, Concentration (Cohort 8, Patient 25, Day 1, Hour 0): 0 µg/mL
ITPP plasma level, Concentration (Cohort 8, Patient 25, Day 1, Hour 3): 388 µg/mL
ITPP plasma level, Concentration (Cohort 8, Patient 25, Day 1, Hour 6): 497 µg/mL
ITPP plasma level, Concentration (Cohort 8, Patient 25, Day 1, Hour 8.5): 505 µg/mL
ITPP plasma level, Concentration (Cohort 8, Patient 25, Day 1, Hour 9): 317 µg/mL
ITPP plasma level, Concentration (Cohort 8, Patient 25, Day 1, Hour 10): 194 µg/mL
ITPP plasma level, Concentration (Cohort 8, Patient 25, Day 5, Hour 0): 0 µg/mL
ITPP plasma level, Concentration (Cohort 8, Patient 25, Day 5, Hour 3): 354 µg/mL
ITPP plasma level, Concentration (Cohort 8, Patient 25, Day 5, Hour 6): 495 µg/mL
AUC (cohort 1, 1866 mg/m2): 350.7 µg·h/mL
AUMC (cohort 1, 1866 mg/m2): 1994.7 h2*mg/L
CL (cohort 1, 1866 mg/m2): 4.8 L/h
Clast (cohort 1, 1866 mg/m2): 19200 ng/mL
Cmax (cohort 1, 1866 mg/m2): 47200 ng/mL
Cmin (cohort 1, 1866 mg/m2): 0 ng/mL
Elimination rate λz (cohort 1, 1866 mg/m2): 0.5 h⁻¹
Half life/T0.5 (cohort 1, 1866 mg/m2): 1.3 h
MRT (cohort 1, 1866 mg/m2): 1.7 h
Tlast (cohort 1, 1866 mg/m2): 10.0 h
